Our source for the MIC and IC50 values is patent US20250353863A1, “TRICYCLIC SPIROLACTAM COMPOUNDS WITH ANTIMYCOBACTERIAL ACTIVITY” (priority 2022, published 2025).

Values after ≈ are worked out from the molar mass of the structure shown. Like-named read-outs stand apart in the source and are kept apart here. Bounds are passed on as bounds.

In general, MIC refers to the lowest concentration that inhibits growth of the organism. What is called IC50 is the midpoint of a concentration-inhibition curve.

For one assay, the system named is Mtb H37Rv-WT. Kind of assay: MIC by resazurin microtiter assay (REMA) against Mtb. It is filed as cell-based. Conditions: Mycobacterium tuberculosis, 144 h, read-out: MIC (μM) H37Rv-WT. In general terms: Resazurin is reduced to fluorescent resorufin, in cell work by metabolically active cells.
Assay [1] deals with purified Ndh (Mtb recombinant MBP tagged Ndh-2 enzyme, MBP-Ndh) (Mycobacterium tuberculosis (strain ATCC 25618 / H37Rv), UniProt P95160). Kind of assay: Biochemical evaluation of MBP-Ndh inhibition (NADH oxidation with menadione). Conditions: NADH 500 μM, menadione 100 μM; read-out: IC50 (μM) purified Ndh.
purified Ndh (Mtb recombinant MBP tagged Ndh-2 enzyme, MBP-Ndh), sequence (P95160 whole entry, looked up): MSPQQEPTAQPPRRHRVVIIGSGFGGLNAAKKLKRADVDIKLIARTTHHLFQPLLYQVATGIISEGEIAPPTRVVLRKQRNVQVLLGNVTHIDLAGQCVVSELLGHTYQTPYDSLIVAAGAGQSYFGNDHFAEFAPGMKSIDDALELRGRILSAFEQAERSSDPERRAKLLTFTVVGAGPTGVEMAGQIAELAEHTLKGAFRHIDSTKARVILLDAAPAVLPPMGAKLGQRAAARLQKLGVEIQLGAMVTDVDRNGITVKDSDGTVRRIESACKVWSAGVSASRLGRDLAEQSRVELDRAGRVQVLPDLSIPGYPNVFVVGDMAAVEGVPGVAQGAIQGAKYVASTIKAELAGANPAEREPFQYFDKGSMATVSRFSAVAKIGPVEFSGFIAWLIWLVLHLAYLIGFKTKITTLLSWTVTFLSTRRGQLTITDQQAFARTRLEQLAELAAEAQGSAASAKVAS

Turning to `CC(C)[C@H]1CO[C@]23CCN(CCc4ccccc4)C[C@H]2CCC(=O)N13` [(3S,7aR,11aR)-3-isopropyl-9-(2-phenylethyl)-2,3,6,7,7a,8,10,11-octahydrooxazolo[2,3-j][1,6]naphthyridin-5-one], the MIC in the assay with Mtb H37Rv-WT (REMA, 37° C., 6 days) lay in the range of 1 to 10 µM (≈ 0.342 to 3.42 µg/mL). Besides, the IC50 in assay [1] was in the range of 0.1 to 1 µM.

Regarding `CC(C)[C@H]1CO[C@]23CCN(Cc4ccc5ccccc5n4)C[C@H]2CCC(=O)N13` [(3S,7aR,11aR)-3-isopropyl-9-(2-quinolylmethyl)-2,3,6,7,7a,8,10,11-octahydrooxazolo[2,3-j][1,6]naphthyridin-5-one], the MIC in the assay on Mtb H37Rv-WT (REMA, 37° C., 6 days) is below 1 µM. In addition, the IC50 in assay [1] fell in the range of 0.1 to 1 µM.

For `CC(C)[C@H]1CO[C@]23CCN(Cc4cccnc4)C[C@H]2CCC(=O)N13` [(3S,7aR,11aR)-3-isopropyl-9-(3-pyridylmethyl)-2,3,6,7,7a,8,10,11-octahydrooxazolo[2,3-j][1,6]naphthyridin-5-one], the MIC in the assay with Mtb H37Rv-WT was in the range of 1 to 10 µM (≈ 0.329 to 3.29 µg/mL). Also, in assay [1], the half-maximal inhibitory concentration (IC50) is above 1 µM.

As to `CC(C)[C@H]1CO[C@]23CCN(Cc4cccc5cccnc45)C[C@H]2CCC(=O)N13` [(3S,7aR,11aR)-3-isopropyl-9-(8-quinolylmethyl)-2,3,6,7,7a,8,10,11-octahydrooxazolo[2,3-j][1,6]naphthyridin-5-one], the MIC in the assay with Mtb H37Rv-WT (REMA, 37° C., 6 days) was in the range of 1 to 10 µM (≈ 0.38 to 3.8 µg/mL). Besides, the IC50 in assay [1] was above 1 µM.

Turning to `CC(C)[C@H]1CO[C@]23CCN(S(=O)(=O)c4ccc(C(F)(F)F)cc4)C[C@H]2CCC(=O)N13` [(3S,7aR,11aR)-3-isopropyl-9-[4-(trifluoromethyl)phenyl]sulfonyl-2,3,6,7,7a,8,10,11-octahydrooxazolo[2,3-j][1,6]naphthyridin-5-one], the MIC in the assay with Mtb H37Rv-WT (REMA, 37° C., 6 days) was 1 to 10 µM (≈ 0.446 to 4.46 µg/mL). Further, the IC50 in assay [1] is 0.1 to 1 µM.

Consider `COc1ccc(CN2CC[C@]34OC[C@H](C(C)C)N3C(=O)CC[C@@H]4C2)cc1` [(3S,7aR,11aR)-3-isopropyl-9-[(4-methoxyphenyl)methyl]-2,3,6,7,7a,8,10,11-octahydrooxazolo[2,3-j][1,6]naphthyridin-5-one], for which the MIC with Mtb H37Rv-WT (REMA, 37° C., 6 days) is 1 to 10 µM (≈ 0.358 to 3.58 µg/mL). The IC50 in assay [1] was in the range of 0.1 to 1 µM.

Consider `CC(C)[C@H]1CO[C@]23CCN(Cc4ccc(C(F)(F)F)cn4)C[C@H]2CCC(=O)N13` [(3S,7aR,11aR)-3-isopropyl-9-[[5-(trifluoromethyl)-2-pyridyl]methyl]-2,3,6,7,7a,8,10,11-octahydrooxazolo[2,3-j][1,6]naphthyridin-5-one], for which the MIC with Mtb H37Rv-WT (REMA, 37° C., 6 days) was below 1 µM. Further, the IC50 in assay [1] was 0.1 to 1 µM.

On to `CC(C)[C@H]1CO[C@]23CCN(Cc4ccc(C(F)(F)F)nc4)C[C@H]2CCC(=O)N13` [(3S,7aR,11aR)-3-isopropyl-9-[[6-(trifluoromethyl)-3-pyridyl]methyl]-2,3,6,7,7a,8,10,11-octahydrooxazolo[2,3-j][1,6]naphthyridin-5-one], for which the MIC in the assay on Mtb H37Rv-WT (REMA, 37° C., 6 days) was below 1 µM. Moreover, in assay [1], the IC50 was below 0.1 µM.

Turning to `CC(C)[C@H]1CO[C@]23CCN(c4ccccc4)C[C@H]2CCC(=O)N13` [(3S,7aR,11aR)-3-isopropyl-9-phenyl-2,3,6,7,7a,8,10,11-octahydrooxazolo[2,3-j][1,6]naphthyridin-5-one], in the assay with Mtb H37Rv-WT (REMA, 37° C., 6 days), the MIC was 1 to 10 µM (≈ 0.314 to 3.14 µg/mL). In assay [1], the IC50 is 0.1 to 1 µM.

As for `CC(C)[C@H]1CO[C@]23CCN(CC4CCCCC4)C[C@H]2CCC(=O)N13` [(3S,7aR,11aR)-9-(cyclohexylmethyl)-3-isopropyl-2,3,6,7,7a,8,10,11-octahydrooxazolo[2,3-j][1,6]naphthyridin-5-one], the MIC in the assay on Mtb H37Rv-WT (REMA, 37° C., 6 days) was below 1 µM. Moreover, the IC50 in assay [1] was 0.1 to 1 µM.

Turning to `CC(C)[C@H]1CO[C@]23CCN(Cc4ccccc4)C[C@H]2CCC(=S)N13` [(3S,7aR,11aR)-9-benzyl-3-isopropyl-2,3,6,7,7a,8,10,11-octahydrooxazolo[2,3-j][1,6]naphthyridine-5-thione], the MIC in the assay on Mtb H37Rv-WT (REMA, 37° C., 6 days) lay in the range of 1 to 10 µM (≈ 0.345 to 3.45 µg/mL). Further, in assay [1], the IC50 was in the range of 0.1 to 1 µM.

In the case of `CC(C)(C)[C@H]1CO[C@]23CCN(Cc4ccccc4)C[C@H]2CCC(=O)N13` [(3S,7aR,11aR)-9-benzyl-3-tert-butyl-2,3,6,7,7a,8,10,11-octahydrooxazolo[2,3-j][1,6]naphthyridin-5-one], in the assay with Mtb H37Rv-WT (REMA, 37° C., 6 days), the MIC was above 10 µM. Besides, the IC50 in assay [1] is above 1 µM.
